Patent US20250296953A1, “3,4-THIAZOLO-STEROIDS AND METHODS OF MAKING AND USING THE SAME” (Arkansas State University - Jonesboro, priority 2018, published 2025)

Experiments:
[1] = system: SF-539; assay: NCI 60 one dose screen; assay type: cell-based, human; settings: one dose; CNS Cancer; SF-539
[2] = system: SK-MEL-28; assay: Melanoma cytotoxicity assay (resazurin); assay type: cell-based; settings: SK-MEL-28 melanoma cells, 24 hours with compound, resazurin; concentration not given
How it was run: (§1)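 ~4000 cells/well seeded 24 h, then compound added in triplicate for 24 h at 37° C, 5% CO2. Resazurin added for 6 h; fluorescence at 544/590 nm, background-subtracted and normalised to DMSO wells as % viability; IC50 from sigmoidal fit of serial dilutions.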

[3] = system: SK-MEL-25; assay: Melanoma cytotoxicity assay (resazurin); assay type: cell-based; settings: SK-MEL-25 melanoma cells, 24 hours with compound, resazurin; concentration not given
How it was run: as §1

[4] = system: HCT-15 (Colon Cancer); assay: NCI 60 one dose screen; assay type: cell-based, human
[5] = system: SF-295; assay: NCI 60 one dose screen; assay type: cell-based, human; settings: one dose; CNS Cancer; SF-295
[6] = system: 60 different human tumor cell lines; assay: NCI Development Therapeutics Program 60 cell line screen, one dose; assay type: cell-based

## C[C@]12CCc3sc(Nc4cccc(O)c4)nc3C1=CC[C@@H]1[C@@H]2CC[C@]2(C)C(=O)CC[C@@H]12 [IIa.17, (1S,2R,13R,14S,18S)-7-(3-hydroxyanilino)-2,18-dimethyl-6-thia-8-azapentacyclo[11.7.0.02,10.05,9.014,18]icosa-5(9),7,10-trien-17-one]
[1]
  Growth Percent: −41.82%
[2]
  SK-MEL-28 (% inhibition): 87%
[3]
  SK-MEL-25 (% inhibition): 79%
[4]
  Growth Percent: −47.90%
[5]
  Growth Percent: −47.70%
[6]; Breast Cancer, BT-549
  Growth Percent: 17.42%
[6]; Breast Cancer, HS 578T
  Growth Percent: 7.41%
[6]; Breast Cancer, MCF7
  Growth Percent: −25.89%
[6]; Breast Cancer, MDA-MB-231/ATCC
  Growth Percent: 39.51%
[6]; Breast Cancer, MDA-MB-468
  Growth Percent: 32.20%
[6]; Breast Cancer, T-47D
  Growth Percent: −8.55%
[6]; CNS Cancer, SF-268
  Growth Percent: 43.09%
[6]; CNS Cancer, SNB-19
  Growth Percent: 57.90%
[6]; CNS Cancer, SNB-75
  Growth Percent: 37.28%
[6]; CNS Cancer, U251
  Growth Percent: 18.85%
[6]; Colon Cancer, COLO 205
  Growth Percent: 34.38%
[6]; Colon Cancer, HCC-2998
  Growth Percent: 81.46%
[6]; Colon Cancer, HCT-116
  Growth Percent: −23.66%
[6]; Colon Cancer, HT29
  Growth Percent: −29.01%
[6]; Colon Cancer, KM12
  Growth Percent: 34.70%
[6]; Colon Cancer, SW-620
  Growth Percent: −4.13%
[6]; Leukemia, CCRF-CEM
  Growth Percent: 12.99%
[6]; Leukemia, HL-60(TB)
  Growth Percent: 45.99%
[6]; Leukemia, K-562
  Growth Percent: 4.81%
[6]; Leukemia, MOLT-4
  Growth Percent: 5.52%
[6]; Leukemia, RPMI-8226
  Growth Percent: −13.60%
[6]; Leukemia, SR
  Growth Percent: 3.61%
[6]; Melanoma, LOX IMVI
  Growth Percent: −52.69%
[6]; Melanoma, M14
  Growth Percent: 54.77%
[6]; Melanoma, MALME-3M
  Growth Percent: 35.26%
[6]; Melanoma, MDA-MB-435
  Growth Percent: 42.59%
[6]; Melanoma, SK-MEL-2
  Growth Percent: 29.07%
[6]; Melanoma, SK-MEL-5
  Growth Percent: 64.76%
[6]; Melanoma, SK-MEL-28
  Growth Percent: 41.25%
[6]; Melanoma, UACC-62
  Growth Percent: 28.83%
[6]; Melanoma, UACC-257
  Growth Percent: 79.56%
[6]; Non-small Cell Lung Cancer, A549/ATCC
  Growth Percent: 55.43%
[6]; Non-small Cell Lung Cancer, EKVX
  Growth Percent: 71.36%
[6]; Non-small Cell Lung Cancer, HOP-62
  Growth Percent: 27.50%
[6]; Non-small Cell Lung Cancer, HOP-92
  Growth Percent: 64.31%
[6]; Non-small Cell Lung Cancer, NCI-H23
  Growth Percent: 63.65%
[6]; Non-small Cell Lung Cancer, NCI-H226
  Growth Percent: 94.46%
[6]; Non-small Cell Lung Cancer, NCI-H322M
  Growth Percent: 72.84%
[6]; Non-small Cell Lung Cancer, NCI-H460
  Growth Percent: 43.90%
[6]; Ovarian Cancer, IGROV1
  Growth Percent: −12.12%
[6]; Ovarian Cancer, NCI/ADR-RES
  Growth Percent: 78.93%
[6]; Ovarian Cancer, OVCAR-3
  Growth Percent: −3.79%
[6]; Ovarian Cancer, OVCAR-4
  Growth Percent: 52.06%
[6]; Ovarian Cancer, OVCAR-5
  Growth Percent: 109.51%
[6]; Ovarian Cancer, OVCAR-8
  Growth Percent: 17.89%
[6]; Ovarian Cancer, SK-OV-3
  Growth Percent: 37.28%
[6]; Prostate Cancer, DU-145
  Growth Percent: 12.72%
[6]; Prostate Cancer, PC-3
  Growth Percent: 28.08%
[6]; Renal Cancer, 786-0
  Growth Percent: −0.52%
[6]; Renal Cancer, ACHN
  Growth Percent: 5.12%
[6]; Renal Cancer, CAKI-1
  Growth Percent: 37.11%
[6]; Renal Cancer, RXF 393
  Growth Percent: −6.67%
[6]; Renal Cancer, SN12C
  Growth Percent: 46.55%
[6]; Renal Cancer, TK-10
  Growth Percent: 10.18%
[6]; Renal Cancer, UO-31
  Growth Percent: 22.19%
